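A five-concentration, 48-hour dose response in 96-well plates underlies each endpoint, interpolated linearly between surrounding concentrations. TGI: total growth inhibition.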
Key:
Assay in all cases: NCI-60 cell line screen, 48 h
[1] = system: COLO 205 colon
[2] = system: HCT-15 colon
[3] = system: HOP-62 NSCLC
[4] = system: HS 578T breast
[5] = system: M14 melanoma
[6] = system: MDA-MB-231 breast
[7] = system: NCI-H522 lung
[8] = system: OVCAR-3 ovarian
[9] = system: RXF 393 renal
[10] = system: SNB-75 CNS

SMILES | TGI [1] [µM] | TGI [2] [µM] | TGI [3] [µM] | TGI [4] [µM] | TGI [5] [µM] | TGI [6] [µM] | TGI [7] [µM] | TGI [8] [µM] | TGI [9] [µM] | TGI [10] [µM]
CC(=O)O[C@H]1C#C/C=C\C#CC[C@@H]2C(=O)N(C(=O)OC(C)(C)C)[C@@H]12 | > 100 | 51.4 | 39.6 | > 88.7 | > 100 | > 100 | 47.8 | 98.3 | 56.4 | > 72.9
N#CC1=C(N)C(C#N)(C#N)C(c2ccc(F)cc2)C=C1C1CC1 (stereo not given) | 24.9 | 22.3 | 25.8 | > 100 | 15.8 | 33.1 | 14.1 | 18.1 | 18.6 | 18.1
OC1CCCC1C(O)(C(F)(F)F)C(F)(F)F (stereo not given) | > 100 | > 100 | > 100 | > 100 | > 100 | > 100 | > 100 | > 100 | > 100 | > 100
Cn1c(=O)c2c(-c3ccccc3)onc2n(C)c1=O | > 100 | > 100 | > 100 | 75.6 | > 100 | > 100 | > 100 | 53.1 | > 100 | > 100
CC(=O)/C=C/C=C(\C)CC/C=C(\C)CC(C)C | 39 | 30.6 | > 100 | > 100 | > 100 | > 100 | 42.6 | 78.7 | 30.3 | 98.8
Cc1ccc(S(=O)(=O)n2cncc2CO)cc1 | > 100 | > 100 | > 100 | > 100 | > 100 | > 100 | > 100 | > 100 | > 100 | > 100
Cc1cc(Cc2c(F)c(F)c(Cc3cc(C)no3)c(F)c2F)on1 | > 100 | > 100 | 62.8 | > 100 | > 100 | > 100 | > 100 | > 100 | > 100 | 76.7
OCC1OC(n2cnc3cccnc32)CC1O (stereo not given) | > 100 | > 100 | > 100 | > 100 | > 100 | > 100 | > 100 | > 100 | > 100 | > 100
C=CCC(CNC(=O)OCc1ccccc1)O[Si](C)(C)C(C)(C)C (stereo not given) | 30.8 | > 100 | > 100 | > 100 | > 100 | 37 | 64.8 | > 100 | 47.6 | > 100
Cc1cc(S(=O)(=O)Nc2nnc3c(C(F)(F)F)cc(Cl)cn23)c(S)cc1Cl | > 100 | > 100 | > 100 | > 100 | > 100 | > 100 | > 100 | > 100 | > 100 | > 100
O=C(O)C(CCc1ccccn1)c1ccccc1 (stereo not given) | > 100 | > 100 | > 100 | > 100 | > 100 | > 100 | > 100 | > 100 | > 100 | > 100
CC(C)CCC[C@@H](C)[C@H]1CC[C@H]2[C@@H]3CC=C4C[C@@H](OC(=O)c5cccc6c(=O)c7ccccc7[nH]c56)CC[C@]4(C)[C@H]3CC[C@]12C | > 75 | > 75 | > 75 | > 75 | > 75 | > 75 | > 75 | > 75 | > 75 | > 75
O=C(C1=C(C(=O)c2ccccc2)SC2(S1)C(C(=O)c1ccccc1)=C(C(=O)c1ccccc1)Sc1c2ssc1=O)c1ccccc1 | > 100 | > 100 | > 100 | > 100 | > 100 | > 100 | 85.5 | > 100 | > 100 | > 100
CC(=O)N(CN1C(=O)CCC1C(=O)O)c1ccccc1 (stereo not given) | > 100 | > 100 | > 100 | > 100 | > 100 | > 100 | > 100 | > 100 | > 100 | > 100
CCCCC[C@@H]1OCO[C@@]2(C)/C=C(C)/C=C/C(=O)O[C@H]([C@@H](C)[C@@H](O)[C@H](C)[C@@]3(O)C[C@@H](O[C@H]4C[C@@H](O)[C@H](O)[C@@H](C)O4)[C@H](C)[C@@H](C)O3)[C@@H](OC)/C=C/C=C(\C)C[C@@H]1[C@@H]2O (stereo in doubt) | 0.666 | 7.17 | 7.02 | 50 | < 0.005 | 1.59 | 7.46 | 2.46 | 1.19 | 2.64
C/C(O)=C(\C=N\C(N)=S)C(=O)Nc1ccccc1C | > 100 | > 100 | > 100 | > 100 | > 100 | > 100 | > 100 | > 100 | > 100 | > 100
COC(=O)c1sc(=S)sc1SCc1ccccc1CSc1sc(=S)sc1C(=O)OC | > 100 | > 100 | > 100 | > 100 | > 100 | > 100 | > 100 | > 100 | > 100 | > 100
CCOC(=O)c1nc2c3c(ncn2n1)Oc1c(c(-c2ccccc2)nn1-c1ccccc1)C3c1ccc(Cl)cc1 (stereo not given) | > 100 | > 100 | > 100 | > 100 | > 100 | > 100 | > 100 | > 100 | > 100 | > 100
O=C(CC(O)(C(F)(F)F)C(F)(F)F)C(CCCl)C(O)(C(F)(F)F)C(F)(F)F (stereo not given) | 26.8 | > 100 | > 100 | > 100 | > 100 | > 100 | > 100 | 65.3 | 70.9 | 96.4
C/C(=C/CO[Si](C)(C)C(C)(C)C)C(=O)N(C)c1ccccc1I | 33.8 | 34.5 | 36.5 | 43.5 | 28.6 | 28.3 | 31.5 | 31.3 | 31.9 | 33.4
CCOC(=O)c1cc2c(OC(C)=O)ccc(OC(C)=O)c2s1 | 4.81 | 3.34 | 23.9 | 5.51 | 3.26 | 4.64 | 1.07 | 3.15 | 3.42 | 5.62

— PubChem BioAssay (NCI)
